Source: patent publication US8329413B2, “Glycoproteomic probes for fluorescent imaging of fucosylated glycans in vivo” (Academia Sinica, priority 2007, dated 2012)

Tests used:
[1] = test system: human alpha-1,3-fucosyltranseferases (FucTs) II-VII; assay: Standard microtiter plate assay of tolerability of GDP-fucose analogs for fucosyltransferases; assay type: biochemical
Excerpt: (§1) Briefly, fucose analogs 4 and 5 are converted to the corresponding 1-bromides, which then are substituted directly by a phosphate group. […] Therefore, TiBr4 is used instead, as described by Srivastava. The fucose-1-phosphates are converted to the corresponding GDP-fucose analogs by using 1H-tetrazole as a catalyst. The tolerability of GDP-fucose analogs 8 and 9 for human alpha-1,3-fucosyltranseferases (FucTs) II-VII is confirmed by using a standard microtiter plate assay. They are then used to elaborate the glycoconjugate substrate, human alpha1-acid glycoprotein (AGP), an acute-phase protein. As fucosylation of AGP is associated with inflammatory diseases, the degree of fucosylation of AGP could be a potential diagnostic or prognostic marker. AGP was fucosylated by using FucT V in the presence of GDP-fucose analogs 8 or 9. After gel filtration, the fucosylated AGP is labeled by using the corresponding naphthalimide 1a or 1b for 4 h at room temperature. Labeled protein is analyzed by SDS/PAGE and visualized by UV light (365 nm). […] Treated protein was separated by SDS/PAGE and visualized by UV light (Top) and Coomassie blue staining (CBB) (Middle). (Bottom) Modified GDP-fucose.

[2] = Fluorescence spectra and quantum yields of probes and click products; assay type: physicochemical; settings: before click reaction
Protocol: Reactivity and click-activated fluorogenic properties of compounds 1a and 1b were tested by performing a Cu(I)-catalyzed azide-alkyne [3+2] cycloaddition (CuAAC) with model fucose analogs 2a and 2b, respectively, as shown in FIG. 3. […] As expected, the ligation reactions produced in a significant increase in fluorescence intensity. The emission maximum of 3a was 462 nm with a quantum yield of 0.36 when excited at 357 nm. […] Unfortunately, the reaction rate between alkyne probe 1a and azidofucose 2a was very slow. Although the reaction of azido probe 1b was completed in <30 min. only 10% of 1a was converted to 3a after 24 h by using the same conditions (monitored by LC-MS). […]
All chemicals were purchased as reagent grade and used without further purification. Reactions were monitored with analytical thin-layer chromatography (TLC) on silica gel 60 F254 plates and visualized under UV (254 nm) and/or by staining with 5% sulfuric acid or acidic ceric ammonium molybdate. ^1H— or ^13C-NMR spectra were measured on a Bruker DRX-500 or DRX-600 using CDCl3 or DMSO-d6 as the solvent (1H, 500 or 600 MHz; ^13C, 125 or 150 MHz). Chemical shifts (in ppm) were determined relative to either tetramethylsilane (0 ppm) or deuterated chloroform (77 ppm). […] Fluorescent excitation and emission were recorded using a HITACHI F-2000 fluorescence spectrophotometer. […]

[3] = test system: human alpha1-acid glycoprotein (AGP); assay: Fluorescent labeling of AGP fucosylated by FucT V, SDS/PAGE visualized by UV light; assay type: biochemical; settings: AGP fucosylated with FucT V and GDP-fucose analog 8, 9 or 10, then labeled with 1a or 1b
Excerpt: as §1
Human alpha1-acid glycoprotein (0.33 mg/mL), pretreated with alpha-fucosidase, was incubated with human alpha-1,3-fucosyltransferase V (100 mU/mL) in MOPS buffer (50 mM, pH 7.2) containing 150 mM NaCl, 10 mM MnCl2, 4 mM ATP, 0.2 mM GDP-fucose analog (8-10). After incubation at 37° C. for 8 h, additional GDP-fucose derivative (final 0.4 mM) was added and the reaction mixture was incubated at 37° C. for 12 h. […]
The fucosylated glycoconjugate was dissolved in HEPES buffer (50 mM, pH 7.6), and added to a solution containing CuSO4 (0.2 mM), 1.0 mM sodium ascorbate, the tris(triazolyl)amine ligand (20) (0.2 mM, stock in DMSO), and the appropriate naphthalimide ligation probe 1a or 1b (0.1 mM, stock in DMSO, final concentration of DMSO; 10%)). After 1 h at room temperature, the mixture was passed through NAP-5 column in water and lyophilized, and analyzed by SDS-PAGE.

[4] = Decomposition of probe 1b by LC-MS; assay type: physicochemical
Protocol: Bicyclic aromatic azides are known to easily decompose by thermolysis or photolysis through a highly reactive nitrene intermediate (FIG. 12).
Thus we analyzed the decomposition of 1b using LC-MS (FIG. 13). […] The compounds were monitored at 350 nm by using an Agilent SB C8 50×4.6 mm column. (a) 1b. (b) Cycloaddition reaction with 7. (c) After 12 h incubation without 7. (d) The synthesized 4-amino derivative 1c (1). See typical experimental procedure of cycloaddition for the reaction conditions.
In the presence of 6-alkyne fucose 2b, probe 1b was completely converted into the product 3b. However, without 6-alkyne fucose […], probe 1b decomposed into a fluorescent compound with a molecular weight corresponding to the 4-amino derivative 1c ([M+H]^+ 241; ca. 80% conversion after 12 h incubation at room temperature).

fluorescence of parent probe [2] | decomposition to 4-amino derivative 1c, conversion ([4]; after 12 h incubation at room temperature, without 6-alkyne fucose) | Structure (SMILES) | tolerability as substrate for FucTs [1] | fluorescent band of labeled AGP on SDS/PAGE under UV light (365 nm) [3] | stability of probe during labeling ([4]; during AGP labeling reaction)
– | – | C#C[C@@H]1O[C@H](OP(=O)(O)OP(=O)(O)OC[C@H]2O[C@@H](n3cnc4c(=O)[nH]c(N)nc43)[C@H](O)[C@@H]2O)[C@@H](O)[C@H](O)[C@@H]1O.CCN(CC)CC [Compound 8, Guanosine 5′-diphospho-6,7-deoxy-beta-L-galacto-hept-6-ynopyranoside triethylammonium salt] | confirmed | – | –
no fluorescence | ca. 80% | CCN1C(=O)c2cccc3c(N=[N+]=[N-])ccc(c23)C1=O [Compound 1b, 4-Azido-N-ethyl-1,8-naphthalimide] | – | clear fluorescent bands | slowly decomposed into a strongly fluorescent 4-amino derivative
